Measured values as given in patent publication US5441950A, “Substituted dibenzoxazepine and dibenzthiazepine carbamate compounds, pharmaceutical compositions and methods of use” (G. D. Searle & Co., priority 1994, dated 1995).
Structures can show the parent of a compound that is named as a salt. Where two headings read alike, the source gives them in different places.

Experiments:
mice = assay: Writhing Assay (PBQ-induced writhing, analgesia, intragastric); format: in vivo, mouse (Charles River male albino mice); details: for responders at 30 mg/kg: ip, 0.5 h, read-out: WRITHING ASSAY, number of mice out of nine or ten in which the test compound produced analgesia
Source text: The Writhing Assay is one of the most widely-used experimental procedures for measuring the analgesic activity of different narcotic and nonnarcotic analgesic agents, and involves the continuous, chemically-induced pain of visceral origin to an animal, such as a mouse or rat. [Gyires et al., Arch. int. […] Chemicals which may be used to induce this pain include phenylbenzoquinone (PBQ) and acetic acid. As a result of the chemical irritation to the animal, a characteristic stretching and writhing of the animal (dorsiflexion of the animal's back, extension of its hindlimbs and the strong contraction of its abdominal musculature) will generally occur. […] Drugs which reduce the number of writhes of the animal appear to restore the normal nociceptive threshold of the animal. […] Charles River male albino mice, weighing 20 to 30 grams, were used in this assay. […] Ten mice which were given saline in place of a test compound of the invention were used as a control group. Five minutes later, each mouse was individually placed into a glass beaker for observation, and the number of writhes occurring during the following ten-minute period was counted. […] The standard initial screening dose of a test compound employed in this assay was 30 mpk […].

[1] = molecular target: T1, prostaglandin E2 -induced contractions of segments of guinea pig ileum (Cavia porcellus, UniProt A0A286XHJ6); assay: Prostaglandin (PGE) Antagonism Assay (prostaglandin E2-induced contractions of guinea pig ileum segments); details: for PGE in guinea pig ileum, dose ratio: dose ratio of prostaglandin E2 EC50 doses, initial test concentration 3 micromolar
T1 construct: The ilea were then quickly removed from the guinea pigs; from tissue; host or cells: guinea pig ileum segments (male albino guinea pigs)
T1 sequence (A0A286XHJ6 1-405): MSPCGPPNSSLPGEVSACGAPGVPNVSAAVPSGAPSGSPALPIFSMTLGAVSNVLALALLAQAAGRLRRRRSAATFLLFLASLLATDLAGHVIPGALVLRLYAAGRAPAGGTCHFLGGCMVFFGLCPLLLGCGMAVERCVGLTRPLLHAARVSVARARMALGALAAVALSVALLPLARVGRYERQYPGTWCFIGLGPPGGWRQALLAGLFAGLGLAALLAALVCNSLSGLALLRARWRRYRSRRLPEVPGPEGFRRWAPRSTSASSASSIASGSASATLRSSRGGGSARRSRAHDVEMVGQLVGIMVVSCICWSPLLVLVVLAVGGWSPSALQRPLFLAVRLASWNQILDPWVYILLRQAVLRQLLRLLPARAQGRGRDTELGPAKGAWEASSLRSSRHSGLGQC
Source text: The ilea were then quickly removed from the guinea pigs and placed in a modified Tyrode solution, a solution which is known to those skilled in the art, containing one-half of the usual amount of magnesium ions. […] Data for a control prostaglandin E2 dose response curve plotting concentration of prostaglandin E2 versus the intensity of contractions, detected isotonically, was then obtained by experimentally adjusting the dose of the prostaglandin E2 being injected into the tissue bath, in a manner known by those of skill in the art. Solutions or suspensions containing an initial concentration (3 micromolar) of a test compound in modified Tyrode solution ("test solutions/suspensions") were then separately substituted for the control bath solution. Each test solution/suspension was then kept in constant contact with the ileum tissue, except for brief periods to drain the bath in preparation for rinsing with fresh test solution/suspension. A second prostaglandin E2 dose response curve was then generated for prostaglandin E2 in the presence of a test compound. A dose ratio of EC50 doses was then calculated from the results of each test in a manner known by those of skill in the art.

[2] = Mus musculus, 30 mg per kilogram, I.G., 30 min before PBQ i.p., writhes <= one-half the control median

Structure (SMILES) | PGE in guinea pig ileum, dose ratio [1] | responders at 30 mg/kg (mice; [2]) [%] | also measured
O=C(CNC(=O)N1Cc2ccccc2Oc2ccc(Cl)cc21)NCc1ccncc1 [Example 6, 8-chloro-N-[[[(4-pyridinylmethyl)amino]carbonyl]methyl]-10(11H)-dibenz[b,f][1,4]oxazepinecarboxamide, hydrochloride] |  | 60 | Kb ([1]; Schild plot, prostaglandin E2-induced contractions, read-out: PGE in guinea pig ileum, pA2 (converted)): 955 nM
Cl.O=C(CNC(=O)N1Cc2ccccc2Oc2ccc(Cl)cc21)NCCc1ccccn1 [Example 8, 8-chloro-N-[[[[2-(2-pyridinyl)ethyl]amino]carbonyl]methyl]-10(11H) dibenz[b,f][1,4]oxazepinecarboxamide hydrochloride] | 11.02 | 30 | 
O=C(OCCCc1ccncc1)N1Cc2ccccc2Oc2ccc(Cl)cc21 [Example 10, 3-(4-pyridinyl)propyl 8-chloro-10(11H)dibenz[b,f][1,4]oxazepinecarboxylate,monohydrochloride] | 2.63 | 30 | 
CN(C)Cc1ccc(COC(=O)N2Cc3ccccc3Oc3ccc(Cl)cc32)o1 [Example 12, [2-(dimethylaminomethyl)furan-5-yl]methyl-8-chlorodibenz[b,f][1,4]oxazepine-10(11H)carboxylate, monohydrochloride] |  | 20 | 
O=C(OCCCNCc1ccncc1)N1Cc2ccccc2Oc2ccc(Cl)cc21 [Example 14, 3-[[(4-pyridinyl)methyl]amino]propyl-8-chlorodibenz[b, f][1,4]oxazepine-10(11H)carboxylate, hydrochloride] | 25.03 | 50 | 
O.O=C(NCc1nn[nH]n1)N1Cc2ccccc2Oc2ccc(Cl)cc21.[Na] [Example 20, 8-chloro-N-[(2H-tetrazol-5-yl)methyl]dibenz[b,f][1,4]oxazepine-10(11H)-carboxamide, sodium salt, hydrate] | 1.80 |  | responders at 30 mg/kg (mice; Mus musculus): 20%
O=C(NCCCCc1ccncc1)N1Cc2ccccc2Oc2ccc(Cl)cc21 [Example 24, 8-chloro-N-[4-(4-pyridinyl)butyl]dibenz[b,f][1,4]oxazepine-10(11H)-carboxamide] | 7.9 | 60 | 
CCN(CC)CCCCCOC(=O)N1Cc2ccccc2Oc2ccc(Cl)cc21 [Example 29, 5-(diethylamino)pentyl 8-chlorodibenz[b,f][1,4]oxazepine-10(11H)-carboxylate] |  | 70 | potency in the Writhing Assay (in words) (mice; mice, I.G.): most potent compound of the invention tested in this assay
O=C(OCc1ccccc1)N1Cc2ccccc2Oc2ccc(Cl)cc21 [Example 43, phenylmethyl 8-chlorodibenz[b,f][1,4]oxazepine-10(11H)-carboxylate] | 0.3 |  | 
O=C(OCc1ccncc1)N1Cc2ccccc2Oc2ccc(Cl)cc21 [Example 44, (4-pyridinyl)methyl 8-chlorodibenz[b,f][1,4]oxazepine-10(11H)-carboxylate] | 365 |  | 
O=C(NCc1ccccn1)N1Cc2ccccc2Oc2ccc(Cl)cc21 [Example 47, 8-chloro-N-(2-pyridinylmethyl)dibenz[b,f][1,4]oxazepine-10(11H)-carboxamide, monohydrochloride] |  | 80 | 

Further lines, with some results ahead:

PGE in guinea pig ileum, dose ratio [1] | Structure (SMILES) | responders at 30 mg/kg (mice; [2]) [%] | also measured
1.70 | O=C(CNC(=O)N1Cc2ccccc2Oc2ccc(Cl)cc21)Nc1ccncc1 [Example 16, 8-chloro-N-[[[(4-pyridinyl)amino]carbonyl]methyl]dibenz[b,f][1,4]oxazepine-10(11H)carboxamide, monohydrochloride] | 80 | 
2.6 | CC(C)(CNC(=O)OCc1ccccc1)NC(=O)N1Cc2ccccc2Oc2ccc(Cl)cc21 [Example 18, phenylmethyl N-[2-[[(8-chlorodibenz[b,f][1,4]oxazepine-10(11H)-yl]carbonyl]amino]-2-methylpropyl]carbamate] | 40 | 
2.0 | CC(C)(CNC(=O)c1ccncc1)NC(=O)N1Cc2ccccc2Oc2ccc(Cl)cc21 [Example 28, 8-chloro-N-[2-[[(4-pyridinyl)carbonyl]amino-1,1-dimethylethyl]dibenz[b,f][1,4]oxazepine-10(11H)carboxamide, hydrochloride hydrate] | 20 | 
1.4 | COC(=O)[C@@H](C)NC(=O)N1Cc2ccccc2Oc2ccc(Cl)cc21 [Example 31, methyl (D)-2R-[[(8-chlorodibenz[b,f][1,4]oxazepine-10(11H)-yl)carbonyl]amino]propanoate] | 80 | 
3.5 | COC(=O)[C@H](C)NC(=O)N1Cc2ccccc2Oc2ccc(Cl)cc21 [Example 32, methyl (L)-2R-[[(8-chlorodibenz[b,f][1,4]oxazepine-10-(11H)-yl)carbonyl]amino]propanoate] |  | ED50 (mice; Mus musculus, po, I.G., mice, PBQ, read-out: WRITHING ASSAY, ED50 Dose): 7.2 mg/kg
2.0 | C[C@@H](NC(=O)N1Cc2ccccc2Oc2ccc(Cl)cc21)C(=O)O [Example 33, (D)-2R-[[(8-chlorodibenz[b,f][1,4]oxazepine-10(11H)yl)carbonyl]amino]propanoic acid] | 60 | 
1.7 | C[C@H](NC(=O)N1Cc2ccccc2Oc2ccc(Cl)cc21)C(=O)O [Example 34, (L)-2S-[[(8-chlorodibenz[b,f][1,4]oxazepine-10(11H)yl)carbonyl]amino]propanoic acid] | 20 | 
1.0 | O=C(NCc1ccncc1)N1Cc2ccccc2Oc2ccc(Cl)cc21 [Example 45, 8-chloro-N-(4-pyridinylmethyl)dibenz[b,f][1,4]oxazepine-10(11H)carboxamide,monohydrochloride] | 60 | 
2.7 | O=C(NCc1cccnc1)N1Cc2ccccc2Oc2ccc(Cl)cc21 [Example 46, 8-chloro-N-(3-pyridinylmethyl)dibenz[b,f]oxazepine-10(11H)-carboxamide, monohydrochloride] | 40 | 
